Measured values reported in patent US10501425B2, “Microbiocidal oxadiazole derivatives” (SYNGENTA PARTICIPATIONS AG, priority 2015, dated 2019).

How the values were obtained:
[1] = test system: Phakopsora pachyrhizi; experiment: Phakopsora pachyrhizi / soybean / leaf disc preventative (Asian soybean rust); assay type: in vivo; conditions: foliar, 200 ppm in the applied formulation, soybean leaf disks, compared to untreated, read-out: disease control
Outline: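 Read-out is percent disease control relative to untreated check discs, assessed once untreated discs show adequate disease, 12 to 14 days after application. Compounds, tested at 200 ppm in the applied formulation, are sprayed onto soybean leaf discs one day before inoculation with a spore suspension.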

[2] = test system: Puccinia recondita f. Sp. Tritici; experiment: Puccinia recondita f. sp. tritici / wheat / leaf disc preventative (brown rust); assay type: in vivo; conditions: foliar, 200 ppm in the applied formulation, wheat leaf segments cv. Kanzler, preventative (inoculated 1 day after application), compared to untreated, read-out: disease control
Outline: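 Wheat leaf segments (cv. Kanzler) on water agar were sprayed with test compound (DMSO stock diluted in 0.025% Tween20/water), then spore-inoculated 1 day later. Incubation at 19° C., 75% rh, 12 h light/12 h dark; percent disease control versus untreated segments scored 7 to 9 days after application. Tested at 200 ppm.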

[3] = test system: Puccinia recondita f. Sp. Tritici; experiment: Puccinia recondita f. sp. tritici / wheat / leaf disc curative (brown rust); assay type: in vivo; conditions: foliar, 24 h, 200 ppm in the applied formulation, wheat leaf segments cv. Kanzler, curative (applied 1 day after inoculation), compared to untreated, read-out: disease control
Outline: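 Read-out is percent disease control relative to untreated segments, assessed 6 to 8 days after treatment once check disease is adequate. Kanzler wheat leaf segments on agar receive fungal spores, then test compound (DMSO stock diluted in 0.025% Tween20 or water) 1 day later, under 19° C and 75% relative humidity.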

[4] = test system: Uromyces viciae-fabae; experiment: Uromyces viciae-fabae / field bean / leaf disc preventative (faba-bean rust); assay type: in vivo; conditions: foliar, 288 h, 100 ppm in the applied formulation, field bean leaf discs, compared to untreated, read-out: disease control
Experimental: Leaf disks or leaf segments of various plant species are cut from plants grown in a greenhouse. The cut leaf disks or segments are placed in multiwell plates (24-well format) onto water agar. The leaf disks are sprayed with a test solution before (preventative) or after (curative) inoculation. Compounds to be tested are prepared as DMSO solutions (max. 10 mg/ml) which are diluted to the appropriate concentration with 0.025% Tween20 just before spraying. The inoculated leaf disks or segments are incubated under defined conditions (temperature, relative humidity, light, etc.) according to the respective test system. A single evaluation of disease level is carried out 3 to 14 days after inoculation, depending on the pathosystem. Percent disease control relative to the untreated check leaf disks or segments is then calculated. Field bean leaf discs are placed on water agar in multiwell plates (96-well format) and 10 μl of the formulated test compound diluted in acetone and a spreader pipetted onto the leaf disc. Two hours after application leaf discs are inoculated by spraying a spore suspension on the lower leaf surface. The leaf discs are incubated in a climate cabinet at 22° C. with 18 hour light/day and 70% relative humidity. The activity of a compound is assessed as percent disease control compared to untreated when an appropriate level of disease damage appears in untreated check leaf disks (12 days after application). The following compounds at 100 ppm in the applied formulation give at least 80% disease control in this test when compared to untreated control leaf discs under the same conditions, which show extensive disease development.

[5] = test system: Glomerella lacenarium (Colletotrichum lagenarium); experiment: Glomerella lagenarium liquid culture / cucumber / preventative (anthracnose); assay type: cell-based; conditions: Colletotrichum orbiculare; 20 ppm in the applied formulation; liquid culture (PDB), growth inhibition measured photometrically 3 to 4 days after application; compared to untreated; read-out: disease control
Outline: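 Conidia from cryogenic storage were mixed into potato dextrose broth. This was added to compound diluted from DMSO into 0.025% Tween20, tested at 20 ppm. Plates were incubated in the dark at 24 °C and 96% relative humidity, and growth was read photometrically after 2–7 days as % activity versus untreated check.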

## CCC(=O)NCc1ccc(-c2noc(C(F)(F)F)n2)cc1 [Compound 1.1, N-[[4-[5-(trifluoromethyl)-1,2,4-oxadiazol-3-yl]phenyl]methyl]propanamide]
[1]
  pest or weed control at 200 ppm: ≥ 80%
[2]
  pest or weed control at 200 ppm: ≥ 80%
[3]
  pest or weed control at 200 ppm: ≥ 80%
[4]
  pest or weed control at 100 ppm: ≥ 80%
[5]
  inhibition of growth at 20 ppm: ≥ 80%

## CC(C)(C)C(=O)NCc1ccc(-c2noc(C(F)(F)F)n2)cc1 [Compound 1.2, 2,2-dimethyl-N-[[4-[5-(trifluoromethyl)-1,2,4-oxadiazol-3-yl]phenyl]methyl]propanamide]
[1]
  pest or weed control at 200 ppm: ≥ 80%
[2]
  pest or weed control at 200 ppm: ≥ 80%
[3]
  pest or weed control at 200 ppm: ≥ 80%
other
  melting point: 120 to 127 °C
[4]
  pest or weed control at 100 ppm: ≥ 80%
[5]
  inhibition of growth at 20 ppm: ≥ 80%

## C#CC(C)(C)C(=O)NCc1ccc(-c2noc(C(F)(F)F)n2)cc1 [Compound 1.3, 2,2-dimethyl-N-[[4-[5-(trifluoromethyl)-1,2,4-oxadiazol-3-yl]phenyl]methyl]but-3-ynamide]
[1]
  pest or weed control at 200 ppm: ≥ 80%
[2]
  pest or weed control at 200 ppm: ≥ 80%
[3]
  pest or weed control at 200 ppm: ≥ 80%
other
  melting point: 55 to 60 °C
[4]
  pest or weed control at 100 ppm: ≥ 80%
[5]
  inhibition of growth at 20 ppm: ≥ 80%

## C#CCCC(=O)NCc1ccc(-c2noc(C(F)(F)F)n2)cc1 [Compound 1.5, N-[[4-[5-(trifluoromethyl)-1,2,4-oxadiazol-3-yl]phenyl]methyl]pent-4-ynamide]
[1]
  pest or weed control at 200 ppm: ≥ 80%
[2]
  pest or weed control at 200 ppm: ≥ 80%
[3]
  pest or weed control at 200 ppm: ≥ 80%
[4]
  pest or weed control at 100 ppm: ≥ 80%
[5]
  inhibition of growth at 20 ppm: ≥ 80%

## COCCC(=O)NCc1ccc(-c2noc(C(F)(F)F)n2)cc1 [Compound 1.11, 3-methoxy-N-[[4-[5-(trifluoromethyl)-1,2,4-oxadiazol-3-yl]phenyl]methyl]propanamide]
[1]
  pest or weed control at 200 ppm: ≥ 80%
[2]
  pest or weed control at 200 ppm: ≥ 80%
[4]
  pest or weed control at 100 ppm: ≥ 80%
[5]
  inhibition of growth at 20 ppm: ≥ 80%

## CC(C)(CCl)C(=O)NCc1ccc(-c2noc(C(F)(F)F)n2)cc1 [Compound 1.13, 3-chloro-2,2-dimethyl-N-[[4-[5-(trifluoromethyl)-1,2,4-oxadiazol-3-yl]phenyl]methyl]propanamide]
[1]
  pest or weed control at 200 ppm: ≥ 80%
[2]
  pest or weed control at 200 ppm: ≥ 80%
[3]
  pest or weed control at 200 ppm: ≥ 80%
[4]
  pest or weed control at 100 ppm: ≥ 80%
[5]
  inhibition of growth at 20 ppm: ≥ 80%

## C=C(C)C(=O)NCc1ccc(-c2noc(C(F)(F)F)n2)cc1 [Compound 1.16, 2-methyl-N-[[4-[5-(trifluoromethyl)-1,2,4-oxadiazol-3-yl]phenyl]methyl]prop-2-enamide]
[1]
  pest or weed control at 200 ppm: ≥ 80%
[2]
  pest or weed control at 200 ppm: ≥ 80%
[4]
  pest or weed control at 100 ppm: ≥ 80%
[5]
  inhibition of growth at 20 ppm: ≥ 80%

## O=C(CCCCC(F)(F)F)NCc1ccc(-c2noc(C(F)(F)F)n2)cc1 [Compound 1.18, 6,6,6-trifluoro-N-[[4-[5-(trifluoromethyl)-1,2,4-oxadiazol-3-yl]phenyl]methyl]hexanamide]
[1]
  pest or weed control at 200 ppm: ≥ 80%
[2]
  pest or weed control at 200 ppm: ≥ 80%
[4]
  pest or weed control at 100 ppm: ≥ 80%

## CCC(COC)C(=O)NCc1ccc(-c2noc(C(F)(F)F)n2)cc1 (stereo not drawn) [Compound 1.19, 2-(methoxymethyl)-N-[[4-[5-(trifluoromethyl)-1,2,4-oxadiazol-3-yl]phenyl]methyl]butanamide]
[1]
  pest or weed control at 200 ppm: ≥ 80%
[2]
  pest or weed control at 200 ppm: ≥ 80%
[3]
  pest or weed control at 200 ppm: ≥ 80%
[4]
  pest or weed control at 100 ppm: ≥ 80%
[5]
  inhibition of growth at 20 ppm: ≥ 80%

## N#CCC(=O)NCc1ccc(-c2noc(C(F)(F)F)n2)cc1 [Compound 1.22, 2-cyano-N-[[4-[5-(trifluoromethyl)-1,2,4-oxadiazol-3-yl]phenyl]methyl]acetamide]
[1]
  pest or weed control at 200 ppm: ≥ 80%
[2]
  pest or weed control at 200 ppm: ≥ 80%
[3]
  pest or weed control at 200 ppm: ≥ 80%
[4]
  pest or weed control at 100 ppm: ≥ 80%

## COC(C)C(=O)NCc1ccc(-c2noc(C(F)(F)F)n2)cc1 (stereo not drawn) [Compound 1.23, 2-methoxy-N-[[4-[5-(trifluoromethyl)-1,2,4-oxadiazol-3-yl]phenyl]methyl]propanamide]
[1]
  pest or weed control at 200 ppm: ≥ 80%
[2]
  pest or weed control at 200 ppm: ≥ 80%
[3]
  pest or weed control at 200 ppm: ≥ 80%
other
  melting point: 94 to 100 °C
[4]
  pest or weed control at 100 ppm: ≥ 80%
[5]
  inhibition of growth at 20 ppm: ≥ 80%

## CCC(CC(=O)NCc1ccc(-c2noc(C(F)(F)F)n2)cc1)C(F)(F)F (stereo not drawn) [Compound 1.24, 3-(trifluoromethyl)-N-[[4-[5-(trifluoromethyl)-1,2,4-oxadiazol-3-yl]phenyl]methyl]pentanamide]
[4]
  pest or weed control at 100 ppm: ≥ 80%
